Data from Sander's compilation of Henry's law constants (doi:10.1136/oem.36.3.231).

assay: Henry solubility constant Hcp at 310 K (mol/(m3 Pa)); settings: reference: Sato and Nakajima (1979a)

Henry solubility constant Hcp at 310 K | SMILES
0.064 | CCCC(C)=O [2-pentanone]
0.0011 | c1ccccc1 [benzene]
0.0018 | C=Cc1ccccc1 [ethenylbenzene]
0.037 | CCCCCC(C)=O [2-heptanone]
0.07 | CCC(=O)CC [3-pentanone]
0.00056 | CC(C)c1ccccc1 [(2-propyl)-benzene]
0.043 | CCCCC(C)=O [2-hexanone]
0.0005 | CCCc1ccccc1 [propylbenzene]
0.00066 | CCc1ccccc1 [ethylbenzene]

SMILES | Henry solubility constant Hcp at 310 K
Cc1ccc(C)cc1 [1,4-dimethylbenzene] | 0.00061
Cc1cccc(C)c1 [1,3-dimethylbenzene] | 0.00064
C=CCc1ccccc1 [2-propenylbenzene] | 0.0014
Cc1ccccc1C [1,2-dimethylbenzene] | 0.001
Cc1ccccc1 [methylbenzene] | 0.00086
CC(=O)CC(C)C [4-methyl-2-pentanone] | 0.031
CC(C)=O [propanone] | 0.15
